Earlier results as cited in patent EP2479272A1, “METHOD FOR PRODUCING MONATIN” (Ajinomoto Co., Inc., priority 2010, dated 2012).

Details: compared with sucrose; from Patent Document 1

N[C@@H](CC(O)(Cc1c[nH]c2ccccc12)C(=O)O)C(=O)O (stereo partly shown) [Monatin, 4-(indole-3-yl-methyl)-4-hydroxy-glutamic acid]
sweetness: one thousand and several hundreds times sweeter than sucrose
